Measurements reported in PubChem BioAssay AID248 (DTP/NCI, 2004).
“And” between values parts separate entries of the source, which are not always exact repeats. Identical values can stand only once. Inconclusive results and toxic doses are left out. Square brackets hold non-standard residues; d marks the D form. Peptide text beside a SMILES is read from it. * marks the point of attachment. ξ: configuration not given here. ξL = CC(C)CC(N)C(=O)O; ClAc = O=C(CCl)*

Test system: L1210 leukemia ip in BDF1 mice, survival T/C
Assay: NCI In Vivo Anticancer Drug Screen. Data for tumor model L1210 Leukemia (intraperitoneal) in B6D2F1 (BDF1) mice
Settings: endpoint: mean survival time, higher = longer survival
Method in brief: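 Survival endpoint. Drug-treated group vs vehicle group, expressed as T divided by C. Tumor passaged by transplantation.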

[1] = dose: 100.0 mg/kg/injection, schedule: Q04DX003 (ip), vehicle: Klucel (hydroxypropylcellulose) (HPC)
[2] = dose: 200.0 mg/kg/injection, schedule: Q04DX003 (ip), vehicle: Klucel (hydroxypropylcellulose) (HPC)
[3] = dose: 400.0 mg/kg/injection, schedule: Q04DX003 (ip), vehicle: Klucel (hydroxypropylcellulose) (HPC)
[4] = dose: 100.0 mg/kg/injection, schedule: Q01DX009 (ip), vehicle: saline with Tween-80
[5] = dose: 100.0 mg/kg/injection, schedule: Q04DX003 (ip), vehicle: saline with Tween-80
[6] = dose: 200.0 mg/kg/injection, schedule: Q04DX003 (ip), vehicle: saline with Tween-80
[7] = dose: 400.0 mg/kg/injection, schedule: Q04DX003 (ip), vehicle: saline with Tween-80
[8] = dose: 200.0 mg/kg/injection, schedule: Q01DX009 (ip), vehicle: saline with Tween-80
[9] = dose: 400.0 mg/kg/injection, schedule: Q01DX009 (ip), vehicle: saline with Tween-80
[10] = dose: 100.0 mg/kg/injection, schedule: Q04DX003 (ip), vehicle: saline
[11] = dose: 200.0 mg/kg/injection, schedule: Q04DX003 (ip), vehicle: saline
[12] = dose: 100.0 mg/kg/injection, schedule: Q01DX001 (ip), vehicle: saline
[13] = dose: 200.0 mg/kg/injection, schedule: Q01DX001 (ip), vehicle: saline

## Clc1ccccc1C=C1c2ccccc2-c2ccccc21
[1]
  T/C: 103 % of control
[2]
  T/C: 100 % of control
[3]
  T/C: 96 % of control

## c1ccc([C@H]2CN3CCSC3=N2)cc1
dose: 0.15 mg/kg/injection, schedule: Q01DX009 (ip), vehicle: saline
  T/C: 94 % of control
dose: 0.31 mg/kg/injection, schedule: Q01DX009 (ip), vehicle: saline
  T/C: 91 % of control
dose: 0.63 mg/kg/injection, schedule: Q01DX009 (ip), vehicle: saline
  T/C: 105 % of control
dose: 1.25 mg/kg/injection, schedule: Q01DX009 (ip), vehicle: saline
  T/C: 96 % of control
dose: 2.5 mg/kg/injection, schedule: Q01DX009 (ip), vehicle: saline
  T/C: 98 % of control
dose: 5.0 mg/kg/injection, schedule: Q01DX009 (ip), vehicle: saline
  T/C: 109 % of control
dose: 10.0 mg/kg/injection, schedule: Q01DX009 (ip), vehicle: saline
  T/C: 93 % of control
dose: 20.0 mg/kg/injection, schedule: Q01DX009 (ip), vehicle: saline
  T/C: 94 % of control

## CC(=O)Nc1ccc(O)cc1[N+](=O)[O-]
[1]
  T/C: 107 % of control
[2]
  T/C: 103 % of control
[3]
  T/C: 103 % of control

## CC(C)CC(NC(=O)CCl)C(=O)NCC(=O)O (stereo unspecified) (ClAc-[ξL]-Gly-OH)
[4]
  T/C: 94 % of control
[5]
  T/C: 101 % of control
[6]
  T/C: 95 % of control
[7]
  T/C: 103 % of control

## O=C(Nc1ccc(C2=NCCN2)cc1)C1CCC(C(=O)Nc2ccc(C3=NCCN3)cc2)CC1 (stereo unspecified)
dose: 0.46 mg/kg/injection, schedule: Q01DX Z (ip), vehicle: carboxymethylcellulose (CMC)
  T/C: 103 % of control
dose: 0.93 mg/kg/injection, schedule: Q01DX Z (ip), vehicle: carboxymethylcellulose (CMC)
  T/C: 112 % of control
dose: 3.75 mg/kg/injection, schedule: Q01DX Z (ip), vehicle: carboxymethylcellulose (CMC)
  T/C: 152 % of control
dose: 11.0 mg/kg/injection, schedule: Q01DX015 (ip), vehicle: methylcellulose (MC)
  T/C: 197 % of control
dose: 15.0 mg/kg/injection, schedule: Q01DX Z (ip), vehicle: carboxymethylcellulose (CMC)
  T/C: 227 % of control
dose: 22.0 mg/kg/injection, schedule: Q01DX015 (ip), vehicle: methylcellulose (MC)
  T/C: 262 % of control
dose: 30.0 mg/kg/injection, schedule: Q01DX Z (ip), vehicle: carboxymethylcellulose (CMC)
  T/C: 250 % of control
dose: 31.0 mg/kg/injection, schedule: Q01DX015 (ip), vehicle: methylcellulose (MC)
  T/C: 284 % of control
dose: 45.0 mg/kg/injection, schedule: Q01DX015 (ip), vehicle: methylcellulose (MC)
  T/C: 335 % of control
dose: 60.0 mg/kg/injection, schedule: Q01DX Z (ip), vehicle: carboxymethylcellulose (CMC)
  T/C: 173 % of control
dose: 62.0 mg/kg/injection, schedule: Q01DX015 (ip), vehicle: methylcellulose (MC)
  T/C: 229 % of control
dose: 125.0 mg/kg/injection, schedule: Q01DX015 (ip), vehicle: methylcellulose (MC)
  T/C: 201 % of control
dose: 125.0 mg/kg/injection, schedule: Q01DX Z (ip), vehicle: carboxymethylcellulose (CMC)
  T/C: 102 % of control
dose: 250.0 mg/kg/injection, schedule: Q01DX001 (ip), vehicle: methylcellulose (MC)
  T/C: 178 % of control
dose: 250.0 mg/kg/injection, schedule: Q01DX015 (ip), vehicle: methylcellulose (MC)
  T/C: 160 % of control
dose: 750.0 mg/kg/injection, schedule: Q01DX001 (ip), vehicle: methylcellulose (MC)
  T/C: 243 % of control
dose: 1500.0 mg/kg/injection, schedule: Q01DX001 (ip), vehicle: methylcellulose (MC)
  T/C: 202 % of control and 239 % of control and 253 % of control

## CCOC(=O)c1cnc(SC)nc1Sc1ccc(Cl)cc1
[4]
  T/C: 96 % of control
[5]
  T/C: 96 % of control
[8]
  T/C: 94 % of control
[6]
  T/C: 96 % of control
[9]
  T/C: 98 % of control
[7]
  T/C: 94 % of control

## OCCOc1c(Cl)cc(Cl)cc1Cl
dose: 50.0 mg/kg/injection, schedule: Q01DX009 (ip), vehicle: saline with Tween-80
  T/C: 100 % of control
[4]
  T/C: 94 % of control and 100 % of control
[5]
  T/C: 93 % of control
[8]
  T/C: 100 % of control
[6]
  T/C: 90 % of control
[9]
  T/C: 93 % of control
[7]
  T/C: 111 % of control

## C1CN1P1(N2CC2)=NP(N2CC2)(N2CC2)=NP(N2CC2)(N2CC2)=NP(N2CC2)(N2CC2)=N1
dose: 4.4 mg/kg/injection, schedule: Q04DX003 (ip), vehicle: saline
  T/C: 114 % of control
dose: 6.6 mg/kg/injection, schedule: Q04DX003 (ip), vehicle: saline
  T/C: 116 % of control
dose: 10.0 mg/kg/injection, schedule: Q01DX001 (ip), vehicle: saline
  T/C: 118 % of control
dose: 10.0 mg/kg/injection, schedule: Q04DX003 (ip), vehicle: saline
  T/C: 119 % of control
dose: 20.0 mg/kg/injection, schedule: Q04DX003 (ip), vehicle: saline
  T/C: 117 % of control
dose: 40.0 mg/kg/injection, schedule: Q01DX001 (ip), vehicle: saline
  T/C: 124 % of control
dose: 40.0 mg/kg/injection, schedule: Q04DX003 (ip), vehicle: saline
  T/C: 109 % of control

## CCN(CC)CC(=O)NCC(CCN(C)C)(CCN(C)C)c1cccc2ccccc12
dose: 25.0 mg/kg/injection, schedule: Q04DX002 (ip), vehicle: saline with Tween-80
  T/C: 115 % of control
dose: 50.0 mg/kg/injection, schedule: Q04DX002 (ip), vehicle: saline with Tween-80
  T/C: 96 % of control
[4]
  T/C: 93 % of control
dose: 100.0 mg/kg/injection, schedule: Q04DX002 (ip), vehicle: saline with Tween-80
  T/C: 107 % of control

## NC(=O)c1ccc[n+](CCc2nc(N)c3[nH]cnc3n2)c1
dose: 50.0 mg/kg/injection, schedule: Q04DX003 (ip), vehicle: saline
  T/C: 97 % of control
[10]
  T/C: 97 % of control
[11]
  T/C: 103 % of control

## C[N+]1(CC(O)COc2ccc(Nc3ccc(N)c4c3C(=O)c3ccccc3C4=O)cc2)CCOCC1 (stereo unspecified)
dose: 100.0 mg/kg/injection, schedule: Q01DX001 (ip), vehicle: acetone
  T/C: 90 % of control

## O=C(/C(=C/c1ccc(F)cc1)c1ccccc1)c1ccc(O)cc1
dose: 100.0 mg/kg/injection, schedule: Q01DX001 (ip), vehicle: carboxymethylcellulose (CMC)
  T/C: 92 % of control
dose: 200.0 mg/kg/injection, schedule: Q01DX001 (ip), vehicle: carboxymethylcellulose (CMC)
  T/C: 110 % of control
dose: 400.0 mg/kg/injection, schedule: Q01DX001 (ip), vehicle: carboxymethylcellulose (CMC)
  T/C: 94 % of control

## CN1C2CCC(O)C1CC2 (stereo unspecified)
[12]
  T/C: 102 % of control
[13]
  T/C: 102 % of control

## CC(=O)C(N=Nc1nn[nH]n1)C(C)=O
[10]
  T/C: 104 % of control
[11]
  T/C: 93 % of control
dose: 400.0 mg/kg/injection, schedule: Q04DX003 (ip), vehicle: saline
  T/C: 96 % of control

## O=C(O)C1CC(=O)N(Cc2ccccc2)C1 (stereo unspecified)
[4]
  T/C: 102 % of control
[5]
  T/C: 100 % of control
[8]
  T/C: 90 % of control
[6]
  T/C: 107 % of control
[9]
  T/C: 98 % of control
[7]
  T/C: 96 % of control

## NC1C2C3C=CC(C3)C12 (stereo unspecified)
dose: 100.0 mg/kg/injection, schedule: Q01DX009 (ip), vehicle: saline
  T/C: 107 % of control
dose: 200.0 mg/kg/injection, schedule: Q01DX009 (ip), vehicle: saline
  T/C: 100 % of control

## c1ccc(-c2cccc([Si](c3ccccc3)(c3ccccc3)c3cccc(-c4ccccc4)c3)c2)cc1
[5]
  T/C: 92 % of control
[6]
  T/C: 88 % of control
[7]
  T/C: 97 % of control

## CN(Cc1ccc(Cl)cc1)C(=O)Nc1ccccc1C(F)(F)F
[4]
  T/C: 108 % of control
[8]
  T/C: 106 % of control
[9]
  T/C: 103 % of control

## CC(=O)OCCn1c([N+](=O)[O-])cnc1/C=[N+](/[O-])CCO
dose: 100.0 mg/kg/injection, schedule: Q04DX002 (ip), vehicle: saline
  T/C: 111 % of control
dose: 200.0 mg/kg/injection, schedule: Q04DX002 (ip), vehicle: saline
  T/C: 100 % of control
dose: 400.0 mg/kg/injection, schedule: Q04DX002 (ip), vehicle: saline
  T/C: 100 % of control

## NC(N)=NNO
[12]
  T/C: 88 % of control
[13]
  T/C: 95 % of control
dose: 400.0 mg/kg/injection, schedule: Q01DX001 (ip), vehicle: saline
  T/C: 101 % of control

## COc1cc([N+](=O)[O-])ccc1NC(=O)Oc1ccc(NC(C)=O)cc1
dose: 100.0 mg/kg/injection, schedule: Q01DX009 (ip), vehicle: Klucel (hydroxypropylcellulose) (HPC)
  T/C: 101 % of control
dose: 200.0 mg/kg/injection, schedule: Q01DX009 (ip), vehicle: Klucel (hydroxypropylcellulose) (HPC)
  T/C: 106 % of control
dose: 400.0 mg/kg/injection, schedule: Q01DX009 (ip), vehicle: Klucel (hydroxypropylcellulose) (HPC)
  T/C: 91 % of control

## Clc1nc(N2CC2)nc(N2CC2)c1Br
dose: 0.2 mg/kg/injection, schedule: Q01DX Z (ip), vehicle: methylcellulose (MC)
  T/C: 88 % of control
dose: 0.5 mg/kg/injection, schedule: Q01DX Z (ip), vehicle: methylcellulose (MC)
  T/C: 104 % of control
